Experimental data published in patent US20040142317A1, “Use of amino acid transporter atbo,+ as a delivery system for drugs and prodrugs” (priority 2003, published 2004).

Columns and labels:
mouse ATB^0,+ [1] = biological target: T1, mouse ATB^0,+ (Mus musculus, UniProt Q9JMA9)
T1 sequence (Q9JMA9 1-638): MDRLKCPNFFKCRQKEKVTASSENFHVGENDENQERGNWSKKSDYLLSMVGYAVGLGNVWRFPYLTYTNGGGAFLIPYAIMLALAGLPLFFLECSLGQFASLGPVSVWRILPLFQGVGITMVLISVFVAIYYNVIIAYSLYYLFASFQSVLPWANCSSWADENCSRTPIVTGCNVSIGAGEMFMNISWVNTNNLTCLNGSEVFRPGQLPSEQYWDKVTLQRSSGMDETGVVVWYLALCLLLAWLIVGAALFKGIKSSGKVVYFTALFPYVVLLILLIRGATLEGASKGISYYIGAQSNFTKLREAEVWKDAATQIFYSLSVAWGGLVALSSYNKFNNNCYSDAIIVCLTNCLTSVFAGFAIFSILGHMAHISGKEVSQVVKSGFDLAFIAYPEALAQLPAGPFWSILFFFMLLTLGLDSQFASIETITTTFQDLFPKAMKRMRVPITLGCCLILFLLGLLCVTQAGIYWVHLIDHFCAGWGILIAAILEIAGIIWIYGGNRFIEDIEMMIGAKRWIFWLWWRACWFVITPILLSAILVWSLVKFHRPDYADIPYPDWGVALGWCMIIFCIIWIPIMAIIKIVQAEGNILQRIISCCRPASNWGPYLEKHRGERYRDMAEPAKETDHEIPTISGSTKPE

ATB^0 = biological target: T2, ATB^0 (Homo sapiens, UniProt Q15758); assay: cell-based
T2 sequence (Q15758 1-541): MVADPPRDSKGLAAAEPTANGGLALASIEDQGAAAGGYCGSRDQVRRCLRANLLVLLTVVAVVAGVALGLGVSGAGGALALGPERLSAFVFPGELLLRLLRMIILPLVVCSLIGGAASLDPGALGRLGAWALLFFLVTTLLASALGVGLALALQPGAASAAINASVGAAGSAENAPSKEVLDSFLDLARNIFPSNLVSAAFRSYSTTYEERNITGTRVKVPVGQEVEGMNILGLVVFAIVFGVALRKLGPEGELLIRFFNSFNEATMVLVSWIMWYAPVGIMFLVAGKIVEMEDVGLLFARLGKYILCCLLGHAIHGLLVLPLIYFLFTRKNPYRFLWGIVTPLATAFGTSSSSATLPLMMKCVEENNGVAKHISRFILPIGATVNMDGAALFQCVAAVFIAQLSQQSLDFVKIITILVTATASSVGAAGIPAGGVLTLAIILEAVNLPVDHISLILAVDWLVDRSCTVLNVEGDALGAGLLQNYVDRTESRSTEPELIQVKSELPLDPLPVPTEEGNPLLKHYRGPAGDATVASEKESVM

mouse ATB^0,+ [2] = biological target: T1, mouse ATB^0,+; assay: cell-based
mouse ATB^0,+ [3] = biological target: T1, mouse ATB^0,+; assay: Transport of radiolabeled substrates in HRPE cells expressing cloned mouse ATB0,+; assay type: cell-based
mouse ATB^0,+ [4] = biological target: T1, mouse ATB^0,+; remark: listed apart in the source
mouse ATB^0,+ [5] = biological target: T1, mouse ATB^0,+; remark: listed apart in the source
OCTN2 = biological target: T3, OCTN2 (Homo sapiens, UniProt O76082); conditions: literature values; cited from earlier work
T3 sequence (O76082 1-557): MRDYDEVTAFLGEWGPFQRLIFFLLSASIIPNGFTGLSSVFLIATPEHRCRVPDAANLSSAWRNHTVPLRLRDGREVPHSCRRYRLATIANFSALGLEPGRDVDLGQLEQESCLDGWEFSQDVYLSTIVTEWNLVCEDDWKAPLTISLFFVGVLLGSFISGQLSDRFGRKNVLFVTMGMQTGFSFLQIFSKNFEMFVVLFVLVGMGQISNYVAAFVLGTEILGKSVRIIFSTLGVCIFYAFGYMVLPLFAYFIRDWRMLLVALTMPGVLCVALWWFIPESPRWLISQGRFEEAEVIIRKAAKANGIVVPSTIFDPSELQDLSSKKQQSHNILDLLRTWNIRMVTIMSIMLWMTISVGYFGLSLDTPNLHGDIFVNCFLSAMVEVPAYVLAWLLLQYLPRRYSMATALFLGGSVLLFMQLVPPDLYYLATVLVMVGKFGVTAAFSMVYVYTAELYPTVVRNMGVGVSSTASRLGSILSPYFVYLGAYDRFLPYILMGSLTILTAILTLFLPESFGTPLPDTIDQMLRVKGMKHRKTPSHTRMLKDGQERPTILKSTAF

ATB^0,+ mRNA = assay: ATB0,+ mRNA levels in mouse intestine after bacterial lipopolysaccharide injection (semi-quantitative RT-PCR); assay type: in vivo; conditions: 5 mg/kg i.p., 16 h; GAPDH as internal control
Experimental: Mice were injected i.p. with either saline (control) or bacterial lipopolysaccharide (5 mg/kg body wt). 16 h following injection, mice were killed and the various segments of the intestine (J, jejunum; L, ileum; C, colon) were collected for mRNA isolation. Five-week-old IL2^+/+ and IL2^−/− mice were killed and the various segments of the intestine were collected for mRNA isolation. Semiquantitative RT-PCR with low number of PCR cycles was carried out with primer pairs specific for mouse ATB^0,+, mouse glyceraldehyde-3-phosphate dehydrogenase (GAPDH), and mouse cyclophilin C (CypC) and the RT-PCR products were detected by Southern hybridization and the signals were quantified.
Since D-serine is an important modulator of glutamatergic neurotransmission and other D-amino acids may also have significant biological effects, it is of clinical relevance to know if there are any pathological conditions in which the intestinal absorption of D-amino acids may be altered. Therefore, the present inventors assessed the expression of ATB^0,+ in the intestinal tract under inflammatory conditions that are known to affect intestinal function. The present inventors used two different animal models for this purpose. […] The steady-state levels of ATB^0,+ mRNA were examined by a semi-quantitative RT-PCR in the jejunum, ileum, and colon. […]

[6] = substrate: N=C(NCCC[C@H](N)C(=O)O)N[N+](=O)[O-]; assay: cells, lysate or membranes; conditions: other: oocytes, various concentrations; pH 7.5
[7] = substrate: NC(=N[N+](=O)[O-])Nc1cccc([C@H](N)C(=O)O)c1; assay: cells, lysate or membranes; conditions: pH 7.5
[8] = HRPE cells, radiolabeled substrate

C[C@H](N)C(=O)O [Alanine]
Current in X. laevis oocytes (nA), L-isomer (mouse ATB^0,+ [1]; L-amino acid 1 mM, NaCl pH 7.5): 650 ± 86 nA
Ki (ATB^0): 22.5 ± 4.2 µM
Ki (mouse ATB^0,+ [2]): 101 ± 14.2 µM

N[C@H](C(=O)O)c1ccccc1 [Phenylglycine, L-phenylglycine]
transport in ATB^0,+-expressing cells versus vector-transfected cells (in words) (mouse ATB^0,+ [3]; HRPE cells, [14C]phenylglycine 10 μM or [8-3H]-valacyclovir 1.25 μM): three times higher
cDNA-specific transport by ATB^0,+ relative to ATB^0 and mb^0,+AT (mouse ATB^0,+ [3]; [14C]phenylglycine 10 μM, HRPE cells): ten times higher
Ki (ATB^0): 19 ± 5.5 µM
inhibition (mouse ATB^0,+ [4]): 100%
Ki (mouse ATB^0,+ [2]): 5.3 ± 0.4 µM
affinity of ATB^0,+ relative to ATB^0 (mouse ATB^0,+ [5]; from Ki values of Table 5): 4 times
affinity of ATB^0,+ relative to affinity for glycine (mouse ATB^0,+ [5]; from Ki values of Table 5): 19 times
affinity of ATB^0,+ relative to affinity for phenylalanine (mouse ATB^0,+ [5]; from Ki values of Table 5): 13 times
affinity of ATB^0,+ relative to b^0,+AT (mouse ATB^0,+ [5]; from Ki values of Table 5): 53 times

C[N+](C)(C)CC(O)CC(=O)[O-] (stereo not drawn) [carnitine, β-hydroxy-γ-trimethylaminobutyrate]
Kt of OCTN2 (OCTN2): 5 to 15 µM
Hill coefficient for Na+ activation of substrate transport (mouse ATB^0,+ [3]; HRPE cells): 1.6±0.1
K0.5 for Na+ in substrate transport (mouse ATB^0,+ [3]; HRPE cells): 54 ± 4 mM
Vmax of ATB^0,+-mediated transport (mouse ATB^0,+ [3]; HRPE cells): 72±2 nmol/10^6 cells/15 min
Michaelis-Menten constant (Kt) of transport via mouse ATB^0,+ (mouse ATB^0,+ [3]; [8]): 0.83 ± 0.08 mM
transport in ATB^0,+ cDNA-transfected cells compared to vector-transfected cells (mouse ATB^0,+ [3]; [8]): 16 fold
reduction of transport on removal of Cl− (gluconate) (mouse ATB^0,+ [3]; carnitine 15 μM, HRPE cells): ~60%
transport when Na+ substituted with N-methyl-D-glucamine (mouse ATB^0,+ [3]; carnitine 15 μM, HRPE cells): completely abolished
Kt of ATB^0,+ (discussion summary) (mouse ATB^0,+ [3]; summary of HRPE cell and oocyte values): 1 to 2 mM
induced inward currents (mouse ATB^0,+ [1]; 10 mM carnitine, esters under similar conditions): ~300 nA
Hill coefficient (nH) for Cl− activation of substrate-induced currents (mouse ATB^0,+ [1]; oocytes, carnitine 1 mM): 0.9±0.2
Hill coefficient (nH) for Na+ activation of substrate-induced currents (mouse ATB^0,+ [1]; oocytes, carnitine 1 mM): 1.9±0.5
K0.5 for Cl− of substrate-induced currents (mouse ATB^0,+ [1]; oocytes, carnitine 1 mM): 15 ± 5 mM
K0.5 for Na+ of substrate-induced currents (mouse ATB^0,+ [1]; oocytes, carnitine 1 mM): 25 ± 4 mM
K0.5 (concentration inducing half-maximal current; Michaelis-Menten constant) (mouse ATB^0,+ [1]; oocytes, membrane potential −50 mV): 1.8 ± 0.4 mM
IC50 (mouse ATB^0,+ [5]): 600 ± 100 µM

lipopolysaccharide
increase of ATB^0,+ mRNA versus saline-treated mice, colon (ATB^0,+ mRNA): 2 fold
increase of ATB^0,+ mRNA versus saline-treated mice, ileum (ATB^0,+ mRNA): 7 fold

B1: mouse ATB^0,+ (Mus musculus) (protein)
chain: MDRLKCPNFFKCRQKEKVTASSENFHVGENDENQERGNWSKKSDYLLSMVGYAVGLGNVWRFPYLTYTNGGGAFLIPYAIMLALAGLPLFFLECSLGQFASLGPVSVWRILPLFQGVGITMVLISVFVAIYYNVIIAYSLYYLFASFQSVLPWANCSSWADENCSRTPIVTGCNVSIGAGEMFMNISWVNTNNLTCLNGSEVFRPGQLPSEQYWDKVTLQRSSGMDETGVVVWYLALCLLLAWLIVGAALFKGIKSSGKVVYFTALFPYVVLLILLIRGATLEGASKGISYYIGAQSNFTKLREAEVWKDAATQIFYSLSVAWGGLVALSSYNKFNNNCYSDAIIVCLTNCLTSVFAGFAIFSILGHMAHISGKEVSQVVKSGFDLAFIAYPEALAQLPAGPFWSILFFFMLLTLGLDSQFASIETITTTFQDLFPKAMKRMRVPITLGCCLILFLLGLLCVTQAGIYWVHLIDHFCAGWGILIAAILEIAGIIWIYGGNRFIEDIEMMIGAKRWIFWLWWRACWFVITPILLSAILVWSLVKFHRPDYADIPYPDWGVALGWCMIIFCIIWIPIMAIIKIVQAEGNILQRIISCCRPASNWGPYLEKHRGERYRDMAEPAKETDHEIPTISGSTKPE
Km [6]: 348 ± 5 µM
Km [7]: 106 ± 1 µM
